Results taken from patent US12285421B2, “Uses of a 5-HT4 receptor agonist” (SUVEN LIFE SCIENCES LIMITED, priority 2018, dated 2025).

What was measured:
[1] = system: ovariectomized female Wistar rats; assay: Object recognition task, in vivo model for dementia due to menopause; parameters: species or system rat; conditions: ~12 months after surgery, dosed 60 min prior to trial-1, FIG. 1
Experimental: Bilateral ovariectomy surgery was carried out in 7-8 weeks old female rats. Briefly, animals were anesthetized using Avertin (2,2,2-tri bromo ethanol) at 150 mg/kg, i.p. and were lay down on the surgery table. A midline incision was given on the dorsal region below the rib cage and 1 cm lateral to the either side of midline, a small incision was given on fascia to locate the adipose fat supporting the ovaries. By slowly pulling out the fat tissue, the ovary was identified and excised following the uterine horn ligation with silk sutures. Fascia was also covered with sutures and the similar procedure was repeated on the other side. Superficial skin layers were sutured and gentamicin (15 mg/kg, s.c.) was given as antibiotic and meloxicam (1 mg/kg, i.m.) as analgesic with povidone iodine applied on superficial skin layers at last. Episodic memory which is a memory of autobiographical events contextual in relation to time, place etc. was assessed ˜12 months after the surgery using object recognition task. On experiment day 1, rats were transferred to experimental room for acclimatization. On experiment day 2, all groups of animals were habituated to their respective test arenas for a period of 30 min prior to trial-1. […] Discriminative index (b−a3/b+a3) was calculated and compared among the groups.

[2] = system: Male Wistar rats; assay: Dominant Submissive Model (DSM) for depression; type: in vivo, rat; conditions: 3 mg/kg, p.o., submissive rats treated, significance in 5th week (p<0.05), FIG. 4
Experimental: A total of 220 male Wistar rats (110 pairs) of ˜150-200 g weight were selected. The animals were randomized on the basis of body weight and matched for body weight, pair wise. The pairs were habituated to the testing apparatus and milk for a period of 5 min per day for 5 days (first week). The animals were housed such that these pairs met only during the trial time. Each pair was given equal access to milk containing 9% sucrose in a beaker (10 mL), which was placed in an opening on the floor at the midpoint of the tunnel. During the second week, time spent in drinking the milk by a pair of rats was recorded and scored for a period of 5 min. Once the 5 min period was over, the rat pair was returned to their respective home cages.
Pairs, which met the above criteria were selected and randomized based on the dominance levels. Both the dominant and submissive animals of the control group were treated with vehicle (sterile water, 4 mL/kg, p.o.). […] During the test period (three weeks), time spent in drinking the milk was recorded for each animal of a pair for a period of 5 min. […] Dominance level (the average of difference in daily drinking score between the dominant and submissive partners during the testing period) was analyzed using repeated measure one way ANOVA followed by Tukey's test against its dominance level during 2nd week (FIG. 4).

[3] = system: serotonin; assay: In vivo brain microdialysis, serotonin modulation in ventral hippocampus; conditions: Compound-1 3 mg/kg, p.o. alone, rat ventral hippocampus
From the text: Incorrect probe placement was considered as criteria to reject the data from animal.

[4] = system: Male Wistar rats; assay: Object recognition task (NORT), MK-801 induced cognitive impairment; conditions: 0.3 and 1 mg/kg, p.o., FIG. 3
Experimental: During the familiarization phase, (T1), the rats were placed individually in the arena for 3 minutes, in which two identical objects (a1 and a2) were positioned 10 cm from the wall. Ninety minutes after T1, choice phase was performed. Rats were placed in the same arena as they were placed in T1 trial. During the choice phase (T2) rats were allowed to explore the arena for 3 minutes in presence of a copy of familiar object (a3) and one novel object (b).

COCCCN1CCC(c2nnc(-c3nn(C(C)C)c4ccccc34)o2)CC1.O=C(O)C(=O)O [Compound-1, Isopropyl-3-{5-[1-(3-methoxypropyl)piperidin-4-yl]-[1,3,4]oxadiazol-2-yl}-1H-indazole oxalate]
object recognition memory deficits [1]: reversed
dominance levels [2]: decreased
increase in hippocampal serotonin levels above pre-dose levels [3]: 22%
MK-801 induced memory deficit [4]: reversed
